The source of these data is patent US12291504B2 (University of Pittsburgh—Of the Commonwealth System of …, priority 2018, dated 2025).

Common to all, as to assay type: biochemical
One assay deals with Rhesus Macaque (1A3) (Macaca mulatta, UniProt A0A5F7ZQH3). The experiment in a line: Inhibition of SULT1A3 homologues in different species: Rhesus Macaque. The method, then:
(§1) Compounds 12, 23 and 25 were also tested for Inhibition of SULT1A3 in different species.
(§2) Inhibition of SULT1A3 Homologues in Different Species. SULT1A3 is only expressed in humans and higher primates. SULT1D1 is the isoform expressed in dogs and rodents that sulfonates neurotransmitters and is most similar to SULT1A3. Three synthesized allosteres (12, 23, and 25) were tested against both 1A3 and 1D1 from different species in order to explore testing in animal models. […] Mice have been engineered such that their SULT1A1/2 enzymes have been knocked out and replaced with the human versions of those isoforms.

The target of a further assay is SULT1A1 (Homo sapiens, UniProt P50225). The experiment in a line: SULT1A1 inhibition, 1-HP initial-rate assay. To be noted: ND = inhibition was not detected at 30 μM compound, parentheses one standard error. The method, then:
(§3) Inhibition studies. Inhibition parameters were determined under conditions identical to those described above (see, Initial-Rate Studies) except that [1-HP] was increased to 5.0 μM (˜61×Km) and inhibitor concentration was varied between 0.20-20×Ki. Ki was obtained using a least-squares fit to the following partial inhibition equation (25,28): v=kcat·(Ki+(1/kcat inh)·[I])/(Ki+[I]), where kcat inh is enzyme turnover at saturating substrates and allosteric inhibitor.
(§4) Inhibition studies. Inhibition parameters were determined under conditions identical to those described above (see, Initial-Rate Studies) except that [1-HP] was increased to 5.0 μM (˜61×Km) and inhibitor concentration was varied between 0.20-20×Ki. Ki was obtained using a least-squares fit to the following partial inhibition equation (47,50): V/Vax=(Ki+α·[I])/(Ki+[I]), where α is percentage of enzyme turnover remaining at saturating substrates and allosteric inhibitor.

The next assay has as its target T1, SULT2A1 (Homo sapiens, UniProt Q06520).
T1 sequence (Q06520 1-285): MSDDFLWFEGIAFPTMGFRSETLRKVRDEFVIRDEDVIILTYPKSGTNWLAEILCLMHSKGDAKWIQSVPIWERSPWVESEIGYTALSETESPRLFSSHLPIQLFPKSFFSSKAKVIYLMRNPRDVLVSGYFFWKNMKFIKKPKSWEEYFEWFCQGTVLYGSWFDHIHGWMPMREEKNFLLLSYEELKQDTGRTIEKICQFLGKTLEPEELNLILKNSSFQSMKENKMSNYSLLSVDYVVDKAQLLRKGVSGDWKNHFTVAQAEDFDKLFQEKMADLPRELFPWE
The experiment in a line: SULT2A1 inhibition test. The settings on record: at 50 uM.

The target in a further assay is T2, Rat (1D1) (Rattus norvegicus, UniProt G3V9R3).
T2 sequence (G3V9R3 1-295): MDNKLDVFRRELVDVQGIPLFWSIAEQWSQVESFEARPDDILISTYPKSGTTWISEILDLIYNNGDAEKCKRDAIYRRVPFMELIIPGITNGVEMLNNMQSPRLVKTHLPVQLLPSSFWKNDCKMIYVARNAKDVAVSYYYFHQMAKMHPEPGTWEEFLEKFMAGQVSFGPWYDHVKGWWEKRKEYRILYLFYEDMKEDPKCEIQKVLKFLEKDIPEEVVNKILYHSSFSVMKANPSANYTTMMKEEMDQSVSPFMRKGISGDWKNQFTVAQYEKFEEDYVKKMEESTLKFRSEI
The experiment in a line: Inhibition of SULT1A3 homologues in different species: Rat. How it is done:
as §1, §2

For the next assay, the target named is Green Monkey (1A3) (Chlorocebus sabaeus, UniProt Z9LO20H8W3). The experiment in a line: Inhibition of SULT1A3 homologues in different species: Green Monkey. The method, then: as §1, §2
The target of another assay is Dog (1D1) (Canis lupus familiaris, UniProt A0A8I3RXJ1). The experiment in a line: Inhibition of SULT1A3 homologues in different species: Dog. How it is done: as §2, with “Compounds 12, 23 and 25 were also tested for Inhibition of SULT1A3 in different species. Inhibition” for “Inhibition”
The next assay deals with T3, SULT1E1 (Homo sapiens, UniProt P49888).
T3 sequence (P49888 1-294): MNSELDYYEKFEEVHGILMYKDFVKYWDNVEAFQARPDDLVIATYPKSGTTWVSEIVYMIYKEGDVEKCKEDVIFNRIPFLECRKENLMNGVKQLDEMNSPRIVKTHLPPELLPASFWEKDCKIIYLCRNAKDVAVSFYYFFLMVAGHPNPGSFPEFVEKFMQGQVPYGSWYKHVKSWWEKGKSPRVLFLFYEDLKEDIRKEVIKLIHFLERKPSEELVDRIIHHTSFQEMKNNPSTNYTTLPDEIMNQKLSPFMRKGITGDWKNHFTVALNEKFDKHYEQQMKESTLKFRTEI
The experiment in a line: SULT1E1 inhibition test. To be noted: at 50 uM.

In a further assay the target is SULT1A3 (Homo sapiens, UniProt P0DMM9). The experiment in a line: SULT1A3 inhibition studies, 1-HP initial-rate fluorescence assay. Set-up: Wild-type and mutant SULT1A3 coding regions were inserted into a pGEX-6P expression vector; N-His/GST/MBP triple-tag (N, cleaved yes); made in house; host or cells: E. coli BL21(DE3); inhibition: dose or concentration left out as unconfirmed. How it is done: The initial rates of SULT catalyzed 1-HP sulfonation are plotted as a function of inhibitor concentration, and are normalized relative to [inhibitor]=0. Enzyme activity was monitored by the sulfonation dependent change in 1-HP fluorescence (λex=325 nm, λem=370 nm). Less than 5% of the concentration-limiting substrate converted at the reaction endpoint was consumed during initial-rate measurements. Each point is the average of three independent determinations. Conditions: SULT (20 nM, active sites), PAPS (0.50 mM, 17×Km), 1-HP (5.0 μM, 61×Km), KPO4 (50 mM), pH 7.5, 25±2° C.
(§5) Initial-Rate Studies. Initial-rate parameters for the labeled or mutant SULT1A3 constructs were determined using a previously described 1-HP assay (25). Briefly, reactions were initiated by addition of PAPS (0.50 mM, 17×Km) to a solution containing enzyme (20 nM, active sites), 1-HP (2.0 μM, ˜24×Km), and KPO4 (50 mM), pH 7.5, 25±2° C. Reactions were monitored via fluorescence change associated with the conversion of 1-HP to 1-HP-S (λex=325 nm, λem=370 nm). Keq for the 1-HP sulfonation reaction is −250. Given the reaction conditions outlined above, ≥99% of 1-HP is converted to 1-HP-S, and ˜0.4% of PAPS is converted to PAP at equilibrium. […] Reaction progress curves were analyzed to obtain initial-rate parameters as described previously (26,27).
as §3
as §5, with “(47).” for “(25).”, “˜250.” for “−250.”, “(48,49).” for “(26,27).”
as §4

In a further assay the target is Mouse (1D1) (Mus musculus, UniProt Q3UZZ6). The experiment in a line: Inhibition of SULT1A3 homologues in different species: Mouse. How it is done: as §1, §2

Read-outs that look alike come from different tables or passages of the source.

SULT1A3, sequence (P0DMM9 whole entry): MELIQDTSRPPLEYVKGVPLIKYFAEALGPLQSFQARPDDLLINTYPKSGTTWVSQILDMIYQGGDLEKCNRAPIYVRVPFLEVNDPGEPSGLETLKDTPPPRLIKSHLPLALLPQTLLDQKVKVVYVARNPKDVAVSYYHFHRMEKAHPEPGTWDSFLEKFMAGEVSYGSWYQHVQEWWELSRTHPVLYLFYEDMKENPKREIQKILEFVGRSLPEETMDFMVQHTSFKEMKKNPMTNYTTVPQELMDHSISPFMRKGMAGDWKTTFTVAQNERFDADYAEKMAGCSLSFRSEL
Green Monkey (1A3), sequence (Z9LO20H8W3 1-295): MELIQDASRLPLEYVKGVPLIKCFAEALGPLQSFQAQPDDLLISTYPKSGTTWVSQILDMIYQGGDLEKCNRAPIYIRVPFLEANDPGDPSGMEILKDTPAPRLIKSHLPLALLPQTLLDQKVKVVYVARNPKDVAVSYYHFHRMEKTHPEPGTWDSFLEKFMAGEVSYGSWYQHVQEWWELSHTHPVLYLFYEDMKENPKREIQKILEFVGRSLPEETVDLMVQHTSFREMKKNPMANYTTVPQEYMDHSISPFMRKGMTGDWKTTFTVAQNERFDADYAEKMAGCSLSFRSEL
Dog (1D1), sequence (A0A8I3RXJ1 entry or part of it): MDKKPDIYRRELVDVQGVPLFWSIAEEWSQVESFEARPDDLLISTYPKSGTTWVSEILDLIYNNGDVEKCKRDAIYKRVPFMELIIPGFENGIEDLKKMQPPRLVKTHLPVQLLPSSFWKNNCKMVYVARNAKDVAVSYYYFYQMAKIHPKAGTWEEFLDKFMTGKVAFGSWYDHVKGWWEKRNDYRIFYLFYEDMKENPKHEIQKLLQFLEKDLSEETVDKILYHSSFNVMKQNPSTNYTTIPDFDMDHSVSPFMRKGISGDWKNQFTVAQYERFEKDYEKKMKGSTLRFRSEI
Rhesus Macaque (1A3), sequence (A0A5F7ZQH3 1-295): as the sequence (Z9LO20H8W3 1-295) above, with A7T, V15M, C23Y, R230K, Y247F, A278E counted along it
SULT1A1, sequence (P50225 whole entry): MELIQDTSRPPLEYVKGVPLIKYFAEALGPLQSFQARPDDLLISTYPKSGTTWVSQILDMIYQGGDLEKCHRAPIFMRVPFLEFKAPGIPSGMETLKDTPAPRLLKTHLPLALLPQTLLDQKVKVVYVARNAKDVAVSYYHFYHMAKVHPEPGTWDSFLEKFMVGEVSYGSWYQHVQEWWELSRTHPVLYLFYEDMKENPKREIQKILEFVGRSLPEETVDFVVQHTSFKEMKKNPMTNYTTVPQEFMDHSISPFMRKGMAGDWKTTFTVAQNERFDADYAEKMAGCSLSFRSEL
Mouse (1D1), sequence (Q3UZZ6 whole entry): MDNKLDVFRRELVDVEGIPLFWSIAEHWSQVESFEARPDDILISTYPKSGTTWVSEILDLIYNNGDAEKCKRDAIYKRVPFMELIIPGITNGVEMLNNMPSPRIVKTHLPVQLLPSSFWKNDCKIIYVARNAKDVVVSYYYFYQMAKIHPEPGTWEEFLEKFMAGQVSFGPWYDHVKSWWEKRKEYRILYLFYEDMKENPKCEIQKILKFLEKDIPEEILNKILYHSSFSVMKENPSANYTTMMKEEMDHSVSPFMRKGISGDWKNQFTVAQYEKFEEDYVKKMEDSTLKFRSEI

In the case of `CC(C)Cc1ccc2cc(/C=C/C(N)=O)cnc2n1` [Compound 23, (E)-3-(7-Isobutylnaphthyridin-3-yl)acrylamide], at Rhesus Macaque (1A3), the “Rhesus Macaque (1A3) % inh” value is listed as 97 (2) %. Further, the Ki came to 12 nM on Rhesus Macaque (1A3) (parentheses one standard error); 3.1 µM at SULT1A1; 270 nM at Rat (1D1) (parentheses one standard error); 72 nM at Green Monkey (1A3) (parentheses one standard error); 117 nM at Dog (1D1) (standard error in neighbouring cell); 0.0092 µM on SULT1A3 (ND = inhibition was not detected at 30 μM compound, parentheses one standard error, read-out: SULT1A3 Ki/μM). Also, the Ki at SULT1A3 (standard error in neighbouring cell, read-out: Human (1A3) Ki) was found to be 0.0096 µM; on Mouse (1D1) (parentheses one standard error), 65 nM. Moreover, the inhibition on SULT1A1 (read-out: SULT1A1 Enzyme Inhibition at Saturation/%) is 61%; at SULT1A3 (parentheses one standard error, read-out: SULT1A3 Enzyme Inhibition at Saturation/%), 96%. Further, the “inhibition of SULT2A1” value on SULT2A1 was “no inhibition was detected”. Moreover, the “Rat (1D1) % inh” value at Rat (1D1) is listed as 37 (4) %. Besides, the “Green Monkey (1A3) % inh” value on Green Monkey (1A3) is on record as 91 (4) %. Also, the “Dog (1D1) % inh” value at Dog (1D1) was 81 (4) %. Also, at SULT1E1, the “inhibition of SULT1E1” value was “no inhibition was detected”. For the same compound, on SULT1A3, the “affinity for SULT1A3 (in words)” value is “low nanomolar affinity”. Further, on SULT1A3 (parentheses one standard error), the “Human (1A3) % inh” value is listed as 97 (2) %. For the same compound, the inhibition at saturation result against SULT1A3 (text b218) was “almost complete inhibition”. The “Mouse (1D1) % inh” value on Mouse (1D1) is listed as 92 (3) %.
